Reference: patent publication US20170305922A1, “CARM1 INHIBITORS AND USES THEREOF” (Epizyme, Inc., priority 2014, published 2017)

Legend:
Human CARM1 (PRMT4) = biological target: T1, Human CARM1 (PRMT4) (Homo sapiens, UniProt Q86X55); assay: CARM1 enzyme assay on peptide substrates (3H-SAM Flashplate); details: Biochemical assay; CARM1 0.25 nM, 3H-SAM 30 nM, peptide 250 nM; read-out: Biochem IC50
T1 construct: Flag-CARM1-His was eluted with 200 ug/ml FLAG peptide in buffer A; made in house; host or cells: HEK 293F cells infected with recombinant baculovirus (pFastBacMam)
T1 sequence (Q86X55 1-585 isoform Q86X55-1): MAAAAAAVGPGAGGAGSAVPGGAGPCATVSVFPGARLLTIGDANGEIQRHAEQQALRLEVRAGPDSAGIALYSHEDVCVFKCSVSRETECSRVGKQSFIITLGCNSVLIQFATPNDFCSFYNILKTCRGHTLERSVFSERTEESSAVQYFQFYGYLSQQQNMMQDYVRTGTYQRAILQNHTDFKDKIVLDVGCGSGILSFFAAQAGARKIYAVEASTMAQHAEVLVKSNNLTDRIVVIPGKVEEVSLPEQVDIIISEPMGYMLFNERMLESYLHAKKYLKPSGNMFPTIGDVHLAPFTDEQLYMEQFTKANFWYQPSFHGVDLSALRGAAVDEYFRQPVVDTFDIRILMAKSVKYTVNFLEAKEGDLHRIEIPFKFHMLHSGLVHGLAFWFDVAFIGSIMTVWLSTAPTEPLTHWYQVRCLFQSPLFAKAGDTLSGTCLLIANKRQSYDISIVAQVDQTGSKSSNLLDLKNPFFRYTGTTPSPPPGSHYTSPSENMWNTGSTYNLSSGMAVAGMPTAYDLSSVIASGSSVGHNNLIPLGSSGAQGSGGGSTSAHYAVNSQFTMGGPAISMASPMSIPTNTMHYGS

[1] = tested on: asymmetric di-methyl PABP1 in RKO cells; assay: RKO methylation assay: In Cell Western (ICW) for asymmetric di-methyl PABP1 (PABP1me2a); details: Homo sapiens, RKO, 48 h, Cellular-based (PABP1me2a) ICW (In Cell Western) assay
Procedure, shortened: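 In-cell western on compound-exposed RKO cells (48 hours): asymmetric di-methyl PABP1 detected by antibody at 800 nm, DNA content by DRAQ5 at 700 nm. Percent inhibition from signal ratios against DMSO (minimum) and 20 μM reference compound (maximum) wells; IC50 curves fitted from triplicates.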

Row | IC50 (Human CARM1 (PRMT4)) | IC50 [1] | SMILES
1 | 0.0027 µM | 0.026 µM | CCOC(=O)N1CC2=C(C1)CN(c1nc(-c3cc(OC[C@H](O)CNC)ccc3Cl)nc(-c3c(C)noc3C)c1C)C2 [Example 176]
2 | 0.0036 µM | 0.087 µM | CNC[C@@H](O)COc1ccc(Cl)c(-c2nc(-c3c(C)noc3C)c(C)c(N3CC4=C(CN(C(=O)N(C)C)C4)C3)n2)c1 [Example 177]
3 | 0.0014 µM | 0.024 µM | CNC[C@@H](O)COc1ccc(Cl)c(-c2nc(-c3c(C)c(Cl)nn3C)c(C)c(N3Cc4cnc(OCCOC)nc4C3)n2)c1 [Example 178]
4 | 0.0051 µM | 0.119 µM | CCc1onc(C)c1-c1nc(-c2cc(OC[C@H](O)CNC)ccc2Cl)nc(N2CC3(CCN(C(=O)OC)CC3)C2)c1C [Example 179]
5 | 0.0041 µM | 0.121 µM | CNC[C@@H](O)COc1ccc(Cl)c(-c2nc(-c3c(C)noc3C)c(C)c(N3CC4(CCN(C(=O)OCC(F)F)C4)C3)n2)c1 [Example 180]
6 | 0.0018 µM | 0.459 µM | CNC[C@@H](O)COc1ccc(Cl)c(-c2nc(-c3c(C)noc3C)c(C)c(N3Cc4cnc(N5CCOC5=O)nc4C3)n2)c1 [Example 181]
7 | 0.0018 µM | 0.031 µM | CNC[C@@H](O)COc1ccc(Cl)c(-c2nc(-c3c(C)noc3C)c(C)c(N3Cc4cnc(N(C)C)cc4C3)n2)c1 [Example 183]
8 | 0.0061 µM | 0.488 µM | CNC[C@@H](O)COc1ccc(Cl)c(-c2nc(-c3c(C)noc3C)c(C)c(N3CC(F)(C(=O)N4CCC4)C3)n2)c1 [Example 184]
9 | 0.0051 µM | 0.346 µM | CNC[C@@H](O)COc1ccc(Cl)c(-c2nc(-c3c(C)noc3C)c(C)c(N3CC(F)(C(=O)N(C)C)C3)n2)c1 [Example 185]
10 | 0.0018 µM | 0.049 µM | CNC[C@@H](O)COc1ccc(Cl)c(-c2nc(-c3c(C)noc3C)c(C)c(N3Cc4ccnc(N(C)C)c4C3)n2)c1 [Example 186]
11 | 0.0058 µM | 0.337 µM | CNC[C@@H](O)COc1ccc(Cl)c(-c2nc(-c3c(C)noc3C)c(C)c(N3CC(C)(C(=O)N4CCC4)C3)n2)c1 [Example 187]
12 | 0.0052 µM | 0.15 µM | CNC[C@@H](O)COc1ccc(Cl)c(-c2nc(-c3c(C)noc3C)c(C)c(N3CC(C)(C(=O)N(C)C)C3)n2)c1 [Example 188]
13 | 0.0057 µM | 0.246 µM | CCC1(C(=O)N2CCC2)CN(c2nc(-c3cc(OC[C@H](O)CNC)ccc3Cl)nc(-c3c(C)noc3C)c2C)C1 [Example 189]
14 | 0.0062 µM | 0.138 µM | CCC1(C(=O)N(C)C)CN(c2nc(-c3cc(OC[C@H](O)CNC)ccc3Cl)nc(-c3c(C)noc3C)c2C)C1 [Example 190]
15 | 0.0105 µM | 0.174 µM | CNC[C@@H](O)COc1ccc(Cl)c(-c2nc(-c3c(C)noc3C)c(C)c(N3CC4(CCN(C(=O)OCC(F)F)CC4)C3)n2)c1 [Example 191]
16 | 0.0047 µM | 0.058 µM | CNC[C@@H](O)COc1ccc(Cl)c(-c2nc(-c3c(C)c(Cl)nn3C)c(C)c(N3CC4(CCN(C(=O)OC)CC4)C3)n2)c1 [Example 192]
17 | 0.0041 µM | 0.052 µM | CNC[C@@H](O)COc1ccc(Cl)c(-c2nc(-c3c(C)c(Cl)nn3C)c(C)c(N3CC4(CC(OC)C4)C3)n2)c1 [Example 193]
18 | 0.0018 µM | 0.013 µM | CNC[C@@H](O)COc1ccc(Cl)c(-c2nc(-c3c(C)noc3C)c(C)c(N3Cc4cnc(N5CC[C@H]5C)nc4C3)n2)c1 [Example 194]
19 | 0.0018 µM | 0.013 µM | CNC[C@@H](O)COc1ccc(Cl)c(-c2nc(-c3c(C)noc3C)c(C)c(N3Cc4cnc(N5CC[C@@H]5C)nc4C3)n2)c1 [Example 195]
20 | 0.002 µM | 0.02 µM | CNC[C@@H](O)COc1ccc(Cl)c(-c2nc(-c3c(C)noc3C)c(C)c(N3Cc4ccc(N5CCOCC5)nc4C3)n2)c1 [Example 196]
21 | 0.0026 µM | 0.381 µM | CNC[C@@H](O)COc1ccc(Cl)c(-c2nc(-c3c(C)noc3C)c(C)c(N3Cc4cnc(NCCO)nc4C3)n2)c1 [Example 197]
22 | 0.0004 µM | 0.171 µM | CNC[C@@H](O)COc1ccc(Cl)c(-c2nc(-c3c(C)noc3C)c(C)c(N3CC4=C(C3)CN(c3nc(-c5cc(OC[C@H](O)CNC)ccc5Cl)nc(-c5c(C)noc5C)c3C)C4)n2)c1 [Example 198]
23 | 0.0057 µM | 0.084 µM | CCOc1ncc2c(n1)CN(c1nc(-c3cc(OC[C@H](O)CNC)ccc3Cl)nc(-c3c(C)noc3CC)c1C)C2 [Example 199]

Row | IC50 (Human CARM1 (PRMT4)) | IC50 [1] | SMILES
24 | 0.0021 µM | 0.047 µM | CNC[C@@H](O)COc1ccc(Cl)c(-c2nc(-c3c(C)noc3C)c(C)c(N3Cc4ccnc(C)c4C3)n2)c1 [Example 200]
25 | 0.0048 µM | 0.295 µM | CNC[C@@H](O)COc1ccc(Cl)c(-c2nc(-c3c(C)noc3C)c(C)c(N3CCN(CC(F)(F)F)CC3)n2)c1 [Example 201]
26 | 0.0033 µM | 0.233 µM | CC[C@@H]1CN(c2nc(-c3cc(OC[C@H](O)CNC)ccc3Cl)nc(-c3c(C)noc3C)c2C)CCN1S(C)(=O)=O [Example 202]
27 | 0.0046 µM | 0.2 µM | CC[C@@H]1CN(c2nc(-c3cc(OC[C@H](O)CNC)ccc3Cl)nc(-c3c(C)noc3C)c2C)CCN1CC(F)F [Example 203]
28 | 0.0043 µM | 0.486 µM | CC[C@H]1CN(c2nc(-c3cc(OC[C@H](O)CNC)ccc3Cl)nc(-c3c(C)noc3C)c2C)CCN1S(C)(=O)=O [Example 204]
29 | 0.0037 µM | 0.202 µM | CC[C@@H]1CN(c2nc(-c3cc(OC[C@H](O)CNC)ccc3Cl)nc(-c3c(C)noc3C)c2C)CCN1C(=O)OC [Example 205]
30 | 0.0054 µM | 0.696 µM | CC[C@H]1CN(c2nc(-c3cc(OC[C@H](O)CNC)ccc3Cl)nc(-c3c(C)noc3C)c2C)CCN1C(=O)OC [Example 206]
31 | 0.0015 µM | 0.074 µM | CCc1onc(C)c1-c1nc(-c2cc(OC[C@H](O)CNC)ccc2Cl)nc(N2Cc3cccnc3C2)c1C [Example 207]
32 | 0.0052 µM | 0.142 µM | CNC[C@@H](O)COc1ccc(Cl)c(-c2nc(-c3c(C)noc3C)c(C)c(N3CC4(C3)CC(OC)(C(F)(F)F)C4)n2)c1 [Example 208]
33 | 0.0006 µM | 0.129 µM | CNC[C@@H](O)COc1ccc(Cl)c(-c2nc(-c3c(C)noc3C)c(C)c(N3Cc4nccc(N(C)C)c4C3)n2)c1 [Example 209]
34 | 0.0021 µM | 0.12 µM | CNC[C@@H](O)COc1ccc(Cl)c(-c2nc(-c3c(C)noc3C)c(C)c(N3Cc4nc(C5CC5)oc4C3)n2)c1 [Example 210]
35 | 0.0017 µM | 0.075 µM | CNC[C@@H](O)COc1ccc(Cl)c(-c2nc(-c3c(C)noc3C)c(C)c(N3CC4=C(C3)CN(C3CC3)C4)n2)c1 [Example 211]
36 | 0.0021 µM | 0.04 µM | CNC[C@@H](O)COc1ccc(Cl)c(-c2nc(-c3c(C)noc3C)c(C)c(N3Cc4ccnc(OC)c4C3)n2)c1 [Example 212]
37 | 0.0054 µM | 0.33 µM | CNC[C@@H](O)COc1ccc(Cl)c(-c2nc(-c3c(C)noc3C)c(C)c(N3CC4(C3)CC(O)(C(F)(F)F)C4)n2)c1 [Example 213]
38 | 0.0011 µM | 0.046 µM | CCN(C)c1nccc2c1CN(c1nc(-c3cc(OC[C@H](O)CNC)ccc3Cl)nc(-c3c(C)noc3C)c1C)C2 [Example 214]
39 | 0.0044 µM | 0.023 µM | CNC[C@@H](O)COc1ccc(Cl)c(-c2nc(-c3c(C)c(Br)nn3C)c(C)c(N3CC4(CN(CC(F)(F)F)C4)C3)n2)c1 [Example 215]
40 | 0.0054 µM | 0.415 µM | CNC[C@@H](O)COc1ccc(Cl)c(-c2nc(-c3c(C)noc3C)c(C)c(N3CCN(C(=O)OC)CC3)n2)c1 [Example 216]
41 | 0.0047 µM | 0.101 µM | CNC[C@@H](O)COc1ccc(Cl)c(-c2nc(-c3c(C)noc3C)c(C)c(N3CC4(C3)CC(OC)(C(F)F)C4)n2)c1 [Example 217]
42 | 0.006 µM | 0.419 µM | CNC[C@@H](O)COc1ccc(Cl)c(-c2nc(-c3c(C)noc3C)c(C)c(N3CC4(C3)CC(O)(C(F)F)C4)n2)c1 [Example 218]
43 | 0.0055 µM | 0.129 µM | CNC[C@@H](O)COc1ccc(Cl)c(-c2nc(-c3c(C)noc3C)c(C)c(N3CC4(CN(C(=O)OCC(F)(F)F)C4)C3)n2)c1 [Example 219]
44 | 0.0042 µM | 0.221 µM | CNC[C@@H](O)COc1ccc(Cl)c(-c2nc(-c3c(C)noc3C)c(C)c(N3CC4(CN(C(=O)OCC(F)F)C4)C3)n2)c1 [Example 220]
45 | 0.0015 µM | 0.017 µM | CNC[C@@H](O)COc1ccc(Cl)c(-c2nc(-c3c(C)noc3C)c(C)c(N3Cc4ccc(N5CCC5)nc4C3)n2)c1 [Example 221]
46 | 0.0068 µM | 0.33 µM | CNC[C@@H](O)COc1ccc(Cl)c(-c2nc(-c3c(C)noc3C)c(C)c(N3CCN(CC(F)F)CC3)n2)c1 [Example 224]
